Measurements from patent publication US12679802B2, “Malonamides and their use as herbicides” (BASF SE, priority 2021, dated 2026).

Key:
[1] = test system: AVEFA; test: greenhouse herbicidal test, post-emergence treatment; type: in vivo, Avena fatua; conditions: post-emergence method, scale from 0 to 100
Text: (§1) The seeds of the test plants were sown separately for each species. For the pre-emergence treatment, the active ingredients, which had been suspended or emulsified in water, were applied directly after sowing by means of finely distributing nozzles. The containers were irrigated gently to promote germination and growth and subsequently covered with transparent plastic hoods until the test plants had rooted. This cover caused uniform germination of the test plants, unless this had been impaired by the active ingredients. For the post-emergence treatment, the test plants were first grown to a height of 3 to 15 cm, depending on the plant habit, and only then treated with the active ingredients which had been suspended or emulsified in water. For this purpose, the test plants were either sown directly and grown in the same containers, or they were first grown separately as seedlings and transplanted into the test containers a few days prior to treatment. Depending on the species, the test plants were kept at 10-25° C. or 20-35° C., respectively. The test period extended over 2 to 4 weeks. During this time, the test plants were tended, and their response to the individual treatments was evaluated. Evaluation was carried out using a scale from 0 to 100. 100 means no emergence of the test plants, or complete destruction of at least the aerial moieties, and 0 means no damage, or normal course of growth. A good herbicidal activity is given at values of 65 to 90 and a very good herbicidal activity is given at values of 90 to 100. The test plants used in the greenhouse experiments were of the following species: [table]

[2] = test system: APESV; test: greenhouse herbicidal test, pre-emergence treatment; type: in vivo, Apera spica-venti; conditions: pre-emergence method, scale from 0 to 100
Text: as §1, with “100 means no emergence of the test plants, or complete destruction of at least the aerial moieties, and 0 means no damage, or normal course of growth. A good herbicidal activity is given at values of 65 to 90 and a very good herbicidal activity is given at values of 90 to 100. The test plants used in the greenhouse experiments were of the following species: [table]” left out

[3] = test system: ECHCG; test: as above; type: in vivo, Echinocloa crus-galli; conditions: pre-emergence method, scale from 0 to 100
Text: as §1, with “100 means no emergence of the test plants, or complete destruction of at least the aerial moieties, and 0 means no damage, or normal course of growth. A good herbicidal activity is given at values of 65 to 90 and a very good herbicidal activity is given at values of 90 to 100. The test plants used in the greenhouse experiments were of the following species: [table]” left out

[4] = test system: ALOMY; test: greenhouse herbicidal test, post-emergence treatment; type: in vivo, Alopercurus myosuroides; conditions: post-emergence method, scale from 0 to 100
Text: as §1, with “100 means no emergence of the test plants, or complete destruction of at least the aerial moieties, and 0 means no damage, or normal course of growth. A good herbicidal activity is given at values of 65 to 90 and a very good herbicidal activity is given at values of 90 to 100. The test plants used in the greenhouse experiments were of the following species: [table]” left out

[5] = test system: ABUTH; test: as above; type: in vivo, Abutilon theophrasti; conditions: post-emergence method, application rate 0.250 kg/ha; scale from 0 to 100
Text: as §1, with “100 means no emergence of the test plants, or complete destruction of at least the aerial moieties, and 0 means no damage, or normal course of growth. A good herbicidal activity is given at values of 65 to 90 and a very good herbicidal activity is given at values of 90 to 100. The test plants used in the greenhouse experiments were of the following species: [table]” left out

[6] = test system: AMARE; test: as above; type: in vivo, Amaranthus retroflexus; conditions: post-emergence method, application rate 0.500 kg/ha; scale from 0 to 100
Text: as §1, with “100 means no emergence of the test plants, or complete destruction of at least the aerial moieties, and 0 means no damage, or normal course of growth. A good herbicidal activity is given at values of 65 to 90 and a very good herbicidal activity is given at values of 90 to 100. The test plants used in the greenhouse experiments were of the following species: [table]” left out

[7] = test system: ECHCG; test: as above; type: in vivo, Echinocloa crus-galli; conditions: post-emergence method, application rate 1.000 kg/ha; scale from 0 to 100
Text: as §1, with “100 means no emergence of the test plants, or complete destruction of at least the aerial moieties, and 0 means no damage, or normal course of growth. A good herbicidal activity is given at values of 65 to 90 and a very good herbicidal activity is given at values of 90 to 100. The test plants used in the greenhouse experiments were of the following species: [table]” left out

[8] = test system: SETVI; test: as above; type: in vivo, Setaria viridis; conditions: post-emergence method, application rate 1.000 kg/ha; scale from 0 to 100
Text: as §1, with “100 means no emergence of the test plants, or complete destruction of at least the aerial moieties, and 0 means no damage, or normal course of growth. A good herbicidal activity is given at values of 65 to 90 and a very good herbicidal activity is given at values of 90 to 100. The test plants used in the greenhouse experiments were of the following species: [table]” left out

Structure (SMILES): COC(=O)CCCNC(=O)C(F)(F)C(=O)Nc1cc(Cl)cc(Cl)c1 [I.1, methyl 4-[[3-(3,5-dichloroanilino)-2,2-difluoro-3-oxo-propanoyl]amino]butanoate]
- herbicidal activity against AVEFA ([1]; application rate 0.500 kg/ha): good (A good herbicidal activity is given at values of 65 to 90)

Structure (SMILES): COC(=O)C[C@H](C)NC(=O)C(F)(F)C(=O)Nc1cc(Cl)cc(Cl)c1 [I.2, methyl (3S)-3-[[3-(3,5-dichloroanilino)-2,2-difluoro-3-oxo-propanoyl]amino]butanoate]
- herbicidal activity against APESV ([2]; application rate 0.500 kg/ha): good (A good herbicidal activity is given at values of 65 to 90)

Structure (SMILES): COC(=O)[C@@H]1CCC(NC(=O)C(F)(F)C(=O)Nc2cc(Cl)cc(Cl)c2)C1 (stereo partly drawn) [I.3, methyl (1R)-3-[[3-(3,5-dichloroanilino)-2,2-difluoro-3-oxo-propanoyl]amino]cyclopentanecarboxylate]
- herbicidal activity against ECHCG ([3]; application rate 0.250 kg/ha): good (A good herbicidal activity is given at values of 65 to 90)
- herbicidal activity against ALOMY ([4]; application rate 0.250 kg/ha): very good (a very good herbicidal activity is given at values of 90 to 100)
- herbicidal activity against ABUTH [5]: good (A good herbicidal activity is given at values of 65 to 90)

Structure (SMILES): COC(=O)C[C@H](C)NC(=O)C(F)C(=O)Nc1cc(Cl)cc(Cl)c1 (stereo partly drawn) [I.5, methyl (3S)-3-[[3-(3,5-dichloroanilino)-2-fluoro-3-oxo-propanoyl]amino]butanoate]
- herbicidal activity against ECHCG ([3]; application rate 1.000 kg/ha): good (A good herbicidal activity is given at values of 65 to 90)
- herbicidal activity against ALOMY ([4]; application rate 1.000 kg/ha): very good (a very good herbicidal activity is given at values of 90 to 100)
- herbicidal activity against AVEFA ([1]; application rate 1.000 kg/ha): good (A good herbicidal activity is given at values of 65 to 90)

Structure (SMILES): COC(=O)CC(C)NC(=O)C(F)(C(=O)Nc1cc(Cl)cc(Cl)c1)C(C)O (stereo not shown) [I.6]
- herbicidal activity against AMARE [6]: very good (a very good herbicidal activity is given at values of 90 to 100)

Structure (SMILES): COC(=O)CC(C)NC(=O)C(F)(Br)C(=O)Nc1cc(Cl)cc(Cl)c1 (stereo not shown) [I.12]
- herbicidal activity against AVEFA ([1]; application rate 1.000 kg/ha): very good (a very good herbicidal activity is given at values of 90 to 100)
- herbicidal activity against ECHCG [7]: very good (a very good herbicidal activity is given at values of 90 to 100)
- herbicidal activity against SETVI [8]: very good (a very good herbicidal activity is given at values of 90 to 100)

Structure (SMILES): CC(CC(=O)OC(C)C)NC(=O)C(C)(F)C(=O)Nc1cc(F)cc(Cl)c1 (stereo not shown) [I.16]
- herbicidal activity against APESV ([2]; application rate 0.250 kg/ha): good (A good herbicidal activity is given at values of 65 to 90)
